Source: paper PMC3894633 (Biochemistry, 2013)
Where two headings read alike, the source gives them in different places.

Key:
mycobacterial Lpd (mLpd) = target: T1, mycobacterial Lpd (mLpd) (Mycobacterium tuberculosis, UniProt P9WHH9); assay type: biochemical
T1 sequence (P9WHH9 1-464): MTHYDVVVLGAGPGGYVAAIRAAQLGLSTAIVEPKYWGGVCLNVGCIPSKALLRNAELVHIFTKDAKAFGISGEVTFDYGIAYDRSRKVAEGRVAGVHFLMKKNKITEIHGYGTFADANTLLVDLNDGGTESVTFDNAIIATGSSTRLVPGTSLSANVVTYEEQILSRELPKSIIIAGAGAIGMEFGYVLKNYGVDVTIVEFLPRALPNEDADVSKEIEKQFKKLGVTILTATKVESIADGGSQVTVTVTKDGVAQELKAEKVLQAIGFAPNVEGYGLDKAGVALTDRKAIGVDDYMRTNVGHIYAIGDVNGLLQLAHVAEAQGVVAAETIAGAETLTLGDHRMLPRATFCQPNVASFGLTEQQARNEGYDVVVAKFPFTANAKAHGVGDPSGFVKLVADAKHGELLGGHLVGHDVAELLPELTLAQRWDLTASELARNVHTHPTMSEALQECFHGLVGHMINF

M. bovis BCG = assay type: cell-based
[1] = test system: M. tuberculosis ΔpanCDΔlysA; assay type: cell-based; details: for Growth inhibition of M. tuberculosis ΔpanCDΔlysA: 7 days in culture, tested up to 100 μM, inhibition only at 100 μM
human Lpd (hLpd) = target: T2, human Lpd (hLpd) (Homo sapiens, UniProt P09622); assay: Human Lpd inhibition, DTNB assay with 10 μM lipoamide; assay type: biochemical; details: highest concentration tested 100 μM
T2 sequence (P09622 36-509): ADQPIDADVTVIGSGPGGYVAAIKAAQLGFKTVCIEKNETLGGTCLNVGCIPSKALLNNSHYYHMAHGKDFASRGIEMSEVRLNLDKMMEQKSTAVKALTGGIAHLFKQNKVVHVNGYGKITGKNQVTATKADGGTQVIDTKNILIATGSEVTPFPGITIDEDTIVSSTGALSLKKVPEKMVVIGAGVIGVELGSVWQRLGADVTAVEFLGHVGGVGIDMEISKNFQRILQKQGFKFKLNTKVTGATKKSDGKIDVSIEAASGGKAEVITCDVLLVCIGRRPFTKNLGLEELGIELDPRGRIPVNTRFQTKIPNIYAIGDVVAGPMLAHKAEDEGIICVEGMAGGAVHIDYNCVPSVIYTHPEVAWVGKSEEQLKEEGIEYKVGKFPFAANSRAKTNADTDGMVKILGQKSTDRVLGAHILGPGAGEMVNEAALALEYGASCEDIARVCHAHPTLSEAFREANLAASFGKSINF

M. tuberculosis H37Rv = assay: Metabolic profiling of Mtb intracellular metabolites; assay type: cell-based, Mycobacterium tuberculosis; details: Mtb exposed to 75 μM
Mtb = details: ref [20]; cited from earlier work

SMILES: CCN(Cc1ccccc1)C(=O)CN(C)S(=O)(=O)c1cc(Br)cnc1N [E114-0951]
- Loss of potency (mycobacterial Lpd (mLpd)): 100 fold

SMILES: CN(Cc1ccccc1)C(=O)CN(C)S(=O)(=O)c1cc(Br)cnc1N [E144-0828]
- Loss of potency (mycobacterial Lpd (mLpd)): 100 fold

SMILES: Nc1ncc(Br)cc1S(=O)(=O)NCCC(=O)Nc1cccc(Cl)c1 [K906-3123]
- Loss of potency (mycobacterial Lpd (mLpd)): even greater loss of potency

SMILES: CN(CC(=O)Nc1ccc(F)c(Cl)c1)S(=O)(=O)c1cc(Br)cnc1N [SL418]
- Growth inhibition of M. bovis BCG (M. bovis BCG; 7 days in culture, tested up to 100 μM, inhibition only at 100 μM): No growth inhibition
- Growth inhibition of M. tuberculosis ΔpanCDΔlysA [1]: No growth inhibition
- Inhibition of hLpd (human Lpd (hLpd)): did not inhibit

SMILES: COc1ccc(NC(=O)CN(C)S(=O)(=O)c2cc(Br)cnc2N)cc1 [SL827, 2-(2-amino-5-bromo-N-methylpyridine-3-sulfonamido)-N-(4-methoxyphenyl)acetamide]
- Growth inhibition of M. bovis BCG (M. bovis BCG): No growth inhibition
- Changes in alanine, valine and leucine levels (M. tuberculosis H37Rv): no changes
- Growth inhibition of M. tuberculosis ΔpanCDΔlysA [1]: No growth inhibition
- Inhibition of hLpd (human Lpd (hLpd)): did not inhibit

SMILES: Cc1cc(NS(=O)(=O)c2ccc(N)cc2)no1 [Sulfamethoxazole]
- Growth inhibitory effect on Mtb (Mtb): little or no growth inhibitory effect

SMILES: COC(=O)[C@H]1[C@H]2C[C@@H]3c4[nH]c5cc(OC)ccc5c4CCN3C[C@H]2C[C@@H](OC(=O)c2cc(OC)c(OC)c(OC)c2)[C@@H]1OC [reserpine, reference compound]
- Growth inhibitory effect on Mtb on its own ([1]; 25 μM): no growth inhibitory effect

SMILES: Nc1ccc(S(N)(=O)=O)cc1 [sulfanilamide]
- Growth inhibitory effect on Mtb (Mtb): little or no growth inhibitory effect

SMILES: COc1ccc(CCN(C)CCCC(C#N)(c2ccc(OC)c(OC)c2)C(C)C)cc1OC (centres unmarked) [verapamil, reference compound]
- Growth inhibitory effect on Mtb on its own ([1]; 50 μM): no growth inhibitory effect
